Data as given in ChEMBL document CHEMBL1250483, “Three-dimensional quantitative structure-activity relationship CoMSIA/CoMFA and LeapFrog studies on novel series of bicyclo [4.1.0] heptanes derivatives as melanin-concentrating hormone receptor R1 antagonists” (Eur J Med Chem, 2010).

Molecular target: Melanin-concentrating hormone receptor 1 (Homo sapiens, UniProt Q99705)
Assay: Antagonist activity at MCH1 receptor
Type: functional

Chain of Melanin-concentrating hormone receptor 1 (Q99705 whole entry): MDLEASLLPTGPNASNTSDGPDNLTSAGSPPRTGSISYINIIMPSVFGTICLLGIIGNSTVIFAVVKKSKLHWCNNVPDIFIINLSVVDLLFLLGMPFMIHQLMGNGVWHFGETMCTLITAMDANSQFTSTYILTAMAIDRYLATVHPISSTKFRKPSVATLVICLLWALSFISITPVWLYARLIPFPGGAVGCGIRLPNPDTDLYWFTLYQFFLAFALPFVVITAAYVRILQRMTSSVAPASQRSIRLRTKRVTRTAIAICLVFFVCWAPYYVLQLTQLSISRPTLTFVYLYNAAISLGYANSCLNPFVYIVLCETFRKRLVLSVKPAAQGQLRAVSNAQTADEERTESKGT

SMILES	Ki
COC1CCN(CCN(C(=O)Nc2ccc(F)c(Cl)c2)C2CC[C@]3(c4cccc(C#N)c4)CC3C2)CC1 (stereo partly drawn)	15 nM
N#Cc1cccc([C@]23CCC(N(CCN4CC[C@@H](O)C4)C(=O)Nc4ccc(OCOc5ccccc5)c(OCOc5ccccc5)c4)CC2C3)c1 (stereo partly drawn)	134 nM
CS(=O)(=O)N1CCC(CCN(C(=O)Nc2ccc(F)c(C(F)(F)F)c2)C2CC[C@]3(c4cccc(C#N)c4)CC3C2)CC1 (stereo partly drawn)	80 nM
CS(=O)(=O)N1CCC(CN(C(=O)Nc2cc(Cl)nc(Cl)c2)C2CC[C@]3(c4cccc(CN5CC[C@H](O)C5)c4)CC3C2)CC1 (stereo partly drawn)	8.89 nM
COc1cccc(NC(=O)N(CCN2CC[C@@H](O)C2)C2CC[C@]3(c4cccc(C#N)c4)CC3C2)c1 (stereo partly drawn)	373 nM
N#Cc1cccc([C@]23CCC(N(CCN4CC[C@@H](O)C4)C(=O)Nc4ccc(F)cc4)CC2C3)c1 (stereo partly drawn)	54 nM
CS(=O)(=O)N1CCC(CN(C(=O)Nc2ccc(F)c(C(F)(F)F)c2)C2CC[C@]3(c4cccc(C#N)c4)CC3C2)CC1 (stereo partly drawn)	26 nM
N#Cc1cccc([C@]23CCC(N(CCN4CC[C@@H](O)C4)C(=O)Nc4cc(F)cc(F)c4)CC2C3)c1 (stereo partly drawn)	15 nM
N#Cc1cccc([C@]23CCC(N(CCN4CC[C@@H](O)C4)C(=O)Nc4ccc(F)c(F)c4)CC2C3)c1 (stereo partly drawn)	20 nM
CS(=O)(=O)N1CCC(CN(C(=O)Nc2cccc(F)c2)C2CC[C@]3(c4cccc(C#N)c4)CC3C2)CC1 (stereo partly drawn)	9.71 nM
Cc1ccc(NC(=O)N(CCN2CC[C@@H](O)C2)C2CC[C@]3(c4cccc(C#N)c4)CC3C2)cc1F (stereo partly drawn)	48 nM
N#Cc1cccc([C@]23CCC(N(CCN4CC[C@@H](O)C4)C(=O)Nc4cccc([N+](=O)[O-])c4)CC2C3)c1 (stereo partly drawn)	60 nM
N#Cc1cccc([C@]23CCC(N(CCN4CC[C@@H](O)C4)C(=O)Nc4cccc(Br)c4)CC2C3)c1 (stereo partly drawn)	34 nM
N#Cc1cccc([C@]23CCC(N(CCN4CC[C@@H](O)C4)C(=O)Nc4cccc(Cl)c4)CC2C3)c1 (stereo partly drawn)	27 nM
CS(=O)(=O)N1CCCCC1CN(C(=O)Nc1ccc(F)c(Cl)c1)C1CC[C@]2(c3cccc(C#N)c3)CC2C1 (stereo partly drawn)	295 nM
N#Cc1cccc(NC(=O)N(CCN2CC[C@@H](O)C2)C2CC[C@]3(c4cccc(C#N)c4)CC3C2)c1 (stereo partly drawn)	92 nM
CN(C)Cc1cccc([C@]23CCC(N(CC4CCN(S(C)(=O)=O)CC4)C(=O)Nc4cc(Cl)nc(Cl)c4)CC2C3)c1 (stereo partly drawn)	3.3 nM
CC(C)N(CCO)CCN(C(=O)Nc1cc(Cl)nc(Cl)c1)C1CC[C@]2(c3cccc(C#N)c3)CC2C1 (stereo partly drawn)	1.6 nM
CC(C)N(CCN(C(=O)Nc1cc(Cl)nc(Cl)c1)C1CC[C@]2(c3cccc(C#N)c3)CC2C1)[C@@H](C)CO (stereo partly drawn)	1.6 nM
CC1CCC(C2=CCC(N(CCN3CCCC3)C(=O)Nc3ccc(F)c(Cl)c3)CC2)S1 (stereo not drawn)	84.9 nM

SMILES	Ki
CC(=O)C1CCC(C2=CCC(N(CCN3CCCC3)C(=O)Nc3ccc(F)c(Cl)c3)CC2)S1 (stereo not drawn)	31 nM
CC(C)NCCN(C(=O)Nc1cc(Cl)nc(Cl)c1)C1CC[C@]2(c3cccc(C#N)c3)CC2C1 (stereo partly drawn)	1.9 nM
N#Cc1cccc([C@]23CCC(N(CCNCCF)C(=O)Nc4cc(Cl)nc(Cl)c4)CC2C3)c1 (stereo partly drawn)	4.4 nM
CC(=O)C1CCCN1CCN(C(=O)Nc1ccc(F)c(Cl)c1)C1CC[C@]2(c3cccc(C#N)c3)CC2C1 (stereo partly drawn)	23 nM
CC1CC[C@@H](CO)N1CCN(C(=O)Nc1ccc(F)c(Cl)c1)C1CC[C@]2(c3cccc(C#N)c3)CC2C1 (stereo partly drawn)	11 nM
CC1CC[C@@H](CO)N1CCN(C(=O)Nc1cc(Cl)nc(Cl)c1)C1CC[C@]2(c3cccc(C#N)c3)CC2C1 (stereo partly drawn)	1.2 nM
C[N+]1(CCN(C(=O)Nc2ccc(F)c(Cl)c2)C2CC[C@]3(c4cccc(C#N)c4)CC3C2)CCCC1 (stereo partly drawn)	16 nM
C[N+]1(CCN(C(=O)Nc2ccc(F)c(Cl)c2)C2CC[C@]3(c4cccc(C#N)c4)CC3C2)CCCCC1 (stereo partly drawn)	15 nM
N#Cc1cccc([C@]23CCC(N(CCN4CCCC(O)C4)C(=O)Nc4ccc(F)c(Cl)c4)CC2C3)c1 (stereo partly drawn)	22 nM
N#Cc1cccc([C@]23CCC(N(CCN4CCCCCC4)C(=O)Nc4ccc(F)c(Cl)c4)CC2C3)c1 (stereo partly drawn)	15 nM
CNC(=O)N1CCC(CN(C(=O)Nc2ccc(F)c(C(F)(F)F)c2)C2CC[C@]3(c4cccc(C#N)c4)CC3C2)CC1 (stereo partly drawn)	181 nM
N#Cc1cccc([C@]23CCC(N(CCN4CCOCC4)C(=O)Nc4ccc(F)c(Cl)c4)CC2C3)c1 (stereo partly drawn)	11 nM
CC(=O)N1CCC(CN(C(=O)Nc2ccc(F)c(Cl)c2)C2CC[C@]3(c4cccc(C#N)c4)CC3C2)CC1 (stereo partly drawn)	312 nM
CS(=O)(=O)N1CCC(CN(C(=O)Nc2ccc(F)c(Cl)c2)C2CC[C@]3(c4cccc(C#N)c4)CC3C2)CC1 (stereo partly drawn)	7.19 nM
CS(=O)(=O)N1CCC(CN(C(=O)Nc2ccc(F)c(F)c2)C2CC[C@]3(c4cccc(C#N)c4)CC3C2)CC1 (stereo partly drawn)	5.4 nM
N#Cc1cccc([C@]23CCC(N(CCN4CC[C@@H](O)C4)C(=O)Nc4ccccc4)CC2C3)c1 (stereo partly drawn)	132 nM
N#Cc1cccc([C@]23CCC(N(CCN4CC[C@@H](O)C4)C(=O)Nc4cccc(F)c4)CC2C3)c1 (stereo partly drawn)	20 nM
CCS(=O)(=O)N1CCC(CN(C(=O)Nc2ccc(F)c(F)c2)C2CC[C@]3(c4cccc(C#N)c4)CC3C2)CC1 (stereo partly drawn)	21 nM
CS(=O)(=O)N1CCCC(CN(C(=O)Nc2ccc(F)c(Cl)c2)C2CC[C@]3(c4cccc(C#N)c4)CC3C2)C1 (stereo partly drawn)	211 nM

Second part, the compound after the results:

Ki	SMILES
54 nM	CC(C)N(CCN(C(=O)Nc1ccc(F)c(Cl)c1)C1CC[C@]2(c3cccc(CN4CCN(C)CC4)c3)CC2C1)C(C)C (stereo partly drawn)
18 nM	CC(C)N(CCN(C(=O)Nc1ccc(F)c(Cl)c1)C1CC[C@]2(c3cccc(CNS(C)(=O)=O)c3)CC2C1)C(C)C (stereo partly drawn)
31 nM	CC(=O)NCc1cccc([C@]23CCC(N(CCN(C(C)C)C(C)C)C(=O)Nc4ccc(F)c(Cl)c4)CC2C3)c1 (stereo partly drawn)
21 nM	CC(C)N(CCN(C(=O)Nc1ccc(F)c(Cl)c1)C1CC[C@]2(c3cccc(CN4CC[C@H](O)C4)c3)CC2C1)C(C)C (stereo partly drawn)
46 nM	CCN(CC)Cc1cccc([C@]23CCC(N(CCN(C(C)C)C(C)C)C(=O)Nc4ccc(F)c(Cl)c4)CC2C3)c1 (stereo partly drawn)
4.98 nM	CC(C)N(CCN(C(=O)Nc1ccc(F)c(Cl)c1)C1CC[C@]2(c3cccc(C#N)c3)CC2C1)C(C)C (stereo partly drawn)
13 nM	CC(C)N(CCN(C(=O)Nc1ccc(F)c(Cl)c1)C1CC[C@]2(c3cccc(CN(C)C)c3)CC2C1)C(C)C (stereo partly drawn)
8.71 nM	CC(C)N(CCO)CCN(C(=O)Nc1ccc(F)c(Cl)c1)C1CC[C@]2(c3cccc(C#N)c3)CC2C1 (stereo partly drawn)
15 nM	CN(C)Cc1cccc([C@]23CCC(N(CC4CCN(S(C)(=O)=O)CC4)C(=O)Nc4ccc(F)c(Cl)c4)CC2C3)c1 (stereo partly drawn)
2.7 nM	CC(C)N(CCN(C(=O)Nc1cccc([N+](=O)[O-])c1)C1CC[C@]2(c3cccc(C#N)c3)CC2C1)C(C)C (stereo partly drawn)
5.7 nM	CC(C)N(CCN(C(=O)Nc1cccc(Br)c1)C1CC[C@]2(c3cccc(C#N)c3)CC2C1)C(C)C (stereo partly drawn)
9.4 nM	CC(C)N(CCN(C(=O)Nc1ccc(F)c(Cl)c1)C1CC[C@]2(c3cccc(C#N)c3)CC2C1)[C@H](C)CO (stereo partly drawn)
5.2 nM	CC(C)N(CCN(C(=O)Nc1ccc(F)c(Cl)c1)C1CC[C@]2(c3cccc(C#N)c3)CC2C1)[C@@H](C)CO (stereo partly drawn)
2.1 nM	CC(C)N(CCN(C(=O)Nc1cccc(F)c1)C1CC[C@]2(c3cccc(C#N)c3)CC2C1)C(C)C (stereo partly drawn)
6 nM	CC(C)N(CCN(C(=O)Nc1cccc(Cl)c1)C1CC[C@]2(c3cccc(C#N)c3)CC2C1)C(C)C (stereo partly drawn)
12 nM	CC(C)N(CCF)CCN(C(=O)Nc1ccc(F)c(Cl)c1)C1CC[C@]2(c3cccc(C#N)c3)CC2C1 (stereo partly drawn)
2.4 nM	CC(C)N(CCN(C(=O)Nc1cc(Cl)nc(Cl)c1)C1CC[C@]2(c3cccc(C#N)c3)CC2C1)C(C)C (stereo partly drawn)
7.6 nM	CC(C)N(CCN(C(=O)Nc1cccc(C#N)c1)C1CC[C@]2(c3cccc(C#N)c3)CC2C1)C(C)C (stereo partly drawn)
4.5 nM	CC(C)N(CCN(C(=O)Nc1cc(F)cc(F)c1)C1CC[C@]2(c3cccc(C#N)c3)CC2C1)C(C)C (stereo partly drawn)
10.4 nM	CC(C)N(CCN(C(=O)Nc1ccc(F)cc1)C1CC[C@]2(c3cccc(C#N)c3)CC2C1)C(C)C (stereo partly drawn)
7.76 nM	CC(C)N(CCN(C(=O)Nc1ccc(F)c(F)c1)C1CC[C@]2(c3cccc(Br)c3)CC2C1)C(C)C (stereo partly drawn)
48 nM	CC(C)N(CCN(C(=O)Nc1ccc(F)c(Cl)c1)C1CC[C@]2(c3cccc(CO)c3)CC2C1)C(C)C (stereo partly drawn)
4.1 nM	CO/N=C/c1cccc([C@]23CCC(N(CCN(C(C)C)C(C)C)C(=O)Nc4ccc(F)c(Cl)c4)CC2C3)c1 (stereo partly drawn)
29 nM	CCO/N=C/c1cccc([C@]23CCC(N(CCN(C(C)C)C(C)C)C(=O)Nc4ccc(F)c(Cl)c4)CC2C3)c1 (stereo partly drawn)
